“Also recorded” adds a separate entry of the source. No end group written: not given here.
Columns and labels:
[1] = non-diabetic insulin resistant monkeys; cited from earlier work
atherosclerotic lesions = test: Biotinylated peptide binding in vivo to atherosclerotic lesions (aorta and sections); parameters: species or system atherosclerotic ApoE knockout mice
Protocol: (§1) Immunohistochemical analysis for binding was performed on frozen 5 micron sections of ApoE mouse atherosclerotic aortic valve and aorta on poly-L-lysine coated slides. Biotinylated peptide binding to aortic lesions was detected by strepavidin conjugated peroxidase and was developed with DAB substrate (Vector, Burlingame, Calif.). For endothelial identification, biotinylated […] was used and was detected with Texas red conjugated strepavidin. Phage staining was performed with rabbit anti-phage antibody followed by a fluorescein conjugated goat anti-rabbit antibody. The sections were analyzed by laser scanning confocal microscopy.
(§2) To observe phage or peptide association with atherosclerotic lesions, either phage carrying a homing peptide sequence or a circular synthetic peptide were injected into the mice via the tail vein. […] Fixation was in situ by perfusion with 4% paraformaldehyde. The aortas were dissected under a microscope, and the associated fat tissue cleaned while attached. The aorta was then longitudinally opened from aortic valve to iliac bifurcation. The detached aorta was pinned flat.
To verify that the peptidyl sequence CAPGPSKSC (SEQ ID NO:4) that is expressed on phage protein m was responsible for the selective localization to atherosclerotic lesions, a biotinylated peptide containing the core sequence CAPGPSKSC (SEQ ID NO:4) was synthesized, folded, disulfide bonds constituted by oxidization, and compositional validity established by mass spectrometry. The peptide was injected into atherosclerotic ApoE knockout mice via tail vein, and the tissues were fixed by in vivo perfusion, and aortas were freed by dissection. The binding of biotinylated peptide to the aorta was visualized with strepavidin conjugated peroxidase and DAB substrate.
The association of this peptide to the atherosclerotic lesions was also analyzed on tissue sections. The experiment was replicated in atherosclerotic ApoE mice by infusing CAPGPSKSC (SEQ ID NO:4) peptide and sections of the aorta were prepared, detected with strepavidin-conjugated peroxidase and developed with DAB substrate. Peptide binding to the surface of atherosclerotic lesions (FIG. 2B) was quite evident. […] These areas are likely involved in lesion formation and differ to some degree in their phenotype compared to that of the overlying endothelium.

[2] = system: human atherosclerotic lesions; test: Biotinylated peptide binding to human vessel specimens
Protocol: The atherosclerotic regions of human vessels were similarly dissected and pinned on to the dissecting pan. These tissues were then incubated with refolded biotinylated peptides (10.0 μg/ml) overnight at 4° C. The samples were washed three times. An avidin-peroxidase conjugate was used as a second tier probe, and each specimen was visualized with DAB substrate.

HUVEC endothelial cells = test: Peptide binding assay, HUVEC; assay type: cell-based, human; conditions: serial peptide concentrations, biotinylated synthetic peptides
Protocol: (§3) Human umbilical cord venous endothelial cells (HUVEC) and EGM™ culture medium were from Clonetics, Walkersville, Md. Cells were cultivated in EGM with 5% fetal bovine serum (FBS) in flasks coated with 0.2% gelatin. The bEND.3 cells (ATCC) were cultured in Dulbecco's minimum essential medium (DMEM) (Invitrogen, Carlsbad, Calif.) supplemented with 10% FBS and 2 mM L-glutamine. The HT1080 cells were from ATCC and cultured in DMEM supplemented with 10% FBS, 2 mM L- glutamine, 1.5 g/L sodium bicarbonate, and 0.1 mM NEAA (Non-essential amino acids, Invitrogen, Carlsbad, Calif.). The ECV304 were from ATCC and cultured in DMEM, 10% FBS.
(§4) Analysis of synthetic peptide binding to cells was performed in 96 well plates. Cells (10^5) were plated into each well, incubated overnight then briefly fixed with cold ethanol for 10 seconds. Serial concentrations of peptide in 100 μl PBS were added and incubated at room temperature with gentle shaking for four hours. The wells were washed three times with PBS and reaction developed using strepavidin-peroxidase substrate (Vector, Burlingame, Calif.). The reactions were quantified at 405 nm in a plate reader (Molecular Devices, Sunnyvale, Calif.). In the inhibition assay, TIMP-2 protein was included with the peptide in the initial incubation.

fibroblast line HT1080 = test: Peptide binding assay, HT1080; assay type: cell-based; conditions: not shown
Protocol: as §3, §4

ECV304 = test: Peptide binding assay, ECV304; assay type: cell-based; conditions: not shown
Protocol: as §3, §4

[3] = system: TIMP-2 binding site on the surface of endothelial cells; test: Inhibition of peptide binding by TIMP-2 protein; assay type: cell-based; conditions: purified TIMP-2 protein 0.05 μM, peptide 0.5 μM
Protocol: as §4

[4] = system: aortic endothelium of ApoE knockout mice; test: Phage binding to aortic valves/endothelium (immunohistochemistry, confocal microscopy); assay type: in vivo
Protocol: as §1, §2

[5] = sections of aorta, atherosclerotic ApoE mice

| Compound | peptide binding to endothelial cells (absorbance at 405 nm) (HUVEC endothelial cells) | peptide binding to HT1080 cells (fibroblast line HT1080) | peptide binding to ECV304 (ECV304) | effect of TIMP-2 protein on peptide binding to cells [3] | also measured |
| --- | --- | --- | --- | --- | --- |
| Cc1cc(SCc2sc(-c3ccc(C(F)(F)F)cc3)nc2C)ccc1OCC(=O)O [GW501516] |  |  |  |  | increase of HDL-C [1]: 80%; increase of apoA-I [1]: 43%; triglyceride, LDL-C and insulin levels [1]: lowered |
| CAPGPSKSC (not fully specified (bridges); cysteine pairing not given here) [SEQ ID NO:4] |  |  |  |  | peptide binding to lesions of the aorta (atherosclerotic lesions; biotinylated synthetic peptide via tail vein, atherosclerotic ApoE knockout mice, streptavidin-peroxidase/DAB): like that of phage displaying the peptide; also recorded: replicated the CAPGPSKSC (SEQ ID NO:4) phage binding to the lesions; peptide binding to the surface of atherosclerotic lesions, tissue sections (atherosclerotic lesions; sections of aorta after infusion of peptide, atherosclerotic ApoE mice): quite evident; pattern of peptide binding within the lesion, tissue sections (atherosclerotic lesions; [5]): most intense in the endothelium overlying the atherosclerotic lesion; also recorded: bind more to the endothelium at the periphery of the lesions and less to the central aspect of the lesions; peptide signal outside the lesions, tissue sections (atherosclerotic lesions; [5]): no substantial signal was evident elsewhere; peptide binding to atherosclerotic lesion in human arterial specimen ([2]; biotinylated peptide 10.0 μg/ml on luminal surface, overnight 4° C., avidin-peroxidase/DAB): Bound peptide is apparent; also recorded: preferentially bound to the atherosclerotic plaque; peptide binding to non-atherosclerotic arterial samples or veins ([2]; human vascular samples, biotinylated peptide): no observable binding |
| CNHRYMQMC (A synthetic sequence from a combinatorial phage display library.) [SEQ ID NO:344, Eo3-114] | dose dependent binding | dose dependent binding | dose dependent binding | inhibits binding; also recorded: competitively inhibited |  |
| CNQRHQMSC (A synthetic sequence from a combinatorial phage display library.) [SEQ ID NO:336, Eo3-112] | dose dependent binding | dose dependent binding | dose dependent binding | inhibits binding; also recorded: competitively inhibited | selectivity of localization for atherosclerotic lesion endothelium [4]: associates with a molecule present on both atherosclerotic and normal endothelial surfaces; also recorded: not entirely selective for atherosclerotic lesion endothelium |
| CYNRSDGMC (A synthetic sequence from a combinatorial phage display library.) [SEQ ID NO:464, TIMP-2 homologous peptide] | dose dependent binding | dose dependent binding | dose dependent binding | inhibits binding; also recorded: competitively inhibited |  |
